Experimental findings from patent US20170105986A1, “Topical Formulation to Enhance Genital Sensation and Function” (priority 2014, published 2017) are described below.

The assay deals with genital area of the patient. Nature of the assay: Short term effect of the topical formulation applied to the genital area, as reported by users. In kind it is in vivo, human. To be noted: for somewhat improved sexual function continuing after use: middle-aged male, component of the formula; for functionality as component of the topical formulation: forms of coQ10 added to the formulation. The source says:
The following examples are used to show the short term effect of the topical formulation when applied to the genital area of the patient.

As to `Nc1ncnc2c1ncn2[C@@H]1O[C@H](COP(=O)(O)OP(=O)(O)OP(=O)(O)O)[C@@H](O)[C@H]1O` [ATP, adenosine triphosphate], the “somewhat improved sexual function continuing after use” value is “about 10 hours”. Under “ATP included in second core composition”, the “period for which the effects of the topical formulation are prolonged following administration” value was approximately 12 h.
On to `NC(=O)c1ccc[n+]([C@@H]2O[C@H](CO)[C@@H](O)[C@H]2O)c1` [nicotinamide ribose, nicotinamide riboside], for which the “somewhat improved sexual function continuing after use” value is recorded as “about 10 hours”.
Regarding `COc1c(O)c(C)c(C/C=C(\C)CC/C=C(\C)CC/C=C(\C)CC/C=C(\C)CC/C=C(\C)CC/C=C(\C)CC/C=C(\C)CC/C=C(\C)CC/C=C(\C)CCC=C(C)C)c(O)c1OC` [ubiquinol, reference compound], the “functionality as component of the topical formulation” value is reported as “seems not functional”.
Consider `COC1=C(OC)C(=O)C(C/C=C(\C)CC/C=C(\C)CC/C=C(\C)CC/C=C(\C)CC/C=C(\C)CC/C=C(\C)CC/C=C(\C)CC/C=C(\C)CC/C=C(\C)CCC=C(C)C)=C(C)C1=O` [ubiquinone, reference compound], for which the “functionality as component of the topical formulation” value was “seems not functional”.
